Laboratory results from patent publication US20030055106A1, “Therapeutic uses of peroxometallic compounds” (priority 1999, published 2003).

Legend:
HUVECs = assay: HUVEC differentiation and organization into tubular-like structures in fibrin matrix; type: cell-based, Human; conditions: 21 days in culture
Description: Alternatively, HUVECs cultured in a fibrin matrix can form 3-dimensional tubular-like structures in the presence of serum (103). This assay was performed in the presence of either bpV(phen), bpv(pic) or vanadate to assess the influence of each one of these compounds on HUVEC differentiation and organization (Table 1). HUVECs were seeded on the bottom of gelatin-coated wells at high density to provide a confluent monolayer at 48 hours.
Then, 50 000 HUVECs/ml were embedded in fibrinogen solution prior to polymerization. The fibrin matrix was covered with culture medium containing the molecule to be tested, while culture medium without any of these molecules served as controls. Cell behavior was observed periodically by phase contrast microscopy.

[1] = system: Human prostate adenocarcinoma (PC-3); assay: Human prostate adenocarcinoma (PC-3) xenograft; type: in vivo, Male Balb/c nude (nu/nu) mice; conditions: 5 mg/Kg daily i.p. for 39 days
Description: B) Human prostate adenocarcinoma (PC-3) in the athymic mice: Male Balb/c nude (nu/nu) were purchased at 4-6 weeks of age from Charles Rivers Inc. Mice were housed under pathogen free conditions and maintained on a 12-h light/12-h dark cycle with food and water supplied ad libitum. The hormono-independent PC3 human tumor cells were from the American Tissue Cuture Collection. Cells were grown in DMEM in the presence of 5% foetal bovine serum. Cells were collected at confluence, included in a matrix (1.0×10^6 cells/ml; 30% Matrigel). An equal volume of the tumor cell suspension was injected s.c. in the right flank of each mouse. After 5 days, a palpable tumor of approximately 5×5 mm was detected in the inoculated animals. Mice with palpable tumors were divided into five groups (18 mice/group) for the treatment study. All mice in each treatment group had tumor of similar size at the start of treatment. For administration to mice, bpV(phen) was dissolved and diluted in phosphate buffered saline (PBS) at pH 7.4. A 5 mg/Kg dose of bpV(phen) was administed daily by i.p. for 39 days. Taxol was used as a positive control at the dose of 20 mg/Kg and injected i.p. at every three days. A control group of 10 animals was injected with PBS. The injection volume was kept constant at […]. The mice were weighed three times during the experimental period to assess toxicity of the treatment, and the tumors were measured twice weekly using calipers. Tumor volume was calculated from the two-dimensional caliper measurements using the following formula: tumor volume=length×(width)^2×0.53.
The treatment period was completed after 39 days, when the PBS treated group of mice had large tumors, requiring that the animals be sacrificed according to the Animal Care Procedures. […]
Statistical analysis: Tumor growth curves are presented in terms of treatment group means and SEs. Statistical significance of treatment effect was assessed by repeated measures ANOVA after applying a power transformation to equalize residual variances and linearize the tumor growth curves.

O.O.O.OO.OO.[K+].[OH-].[V].c1cnc2c(c1)ccc1cccnc12 [bpV(phen), potassium bisperoxo(1,10-phenanthroline)oxovanadate]
structures observed by phase contrast microscopy (HUVECs; 1 μM): cord-like structures (or cords), tube-like structures (or tubes) and stellate structures (or Stell.struct.) were observed
structures observed by phase contrast microscopy (HUVECs; 2 and 3.5 μM): fragmented cord-like structures were apparent
deaths [1]: No death
suppression of the final tumor compared with PBS-treated control animals [1]: 59%
body weight gained relative to weight at the initiation of the treatment ([1]; average): 1.7 grams
